Assay results as given in US20140329863A1 (priority 2011, published 2014).
Like-named read-outs stand apart in the source and are kept apart here.

What was measured:
T98G cells = experiment: cells; type: cell-based, human; settings: calcein, T98G cells
IMR32 cells = type: cell-based, human
PrP^C in IMR32 cells = type: cell-based, human
PrP^C in T98G cells = type: cell-based, human
[1] = system: PrP^Sc in dividing ScN2a-c13 cells; settings: dividing ScN2a-c13 cells
N2a-cl3 cells = experiment: cells; settings: Mus musculus, N2a-cl3, read-out: Dividing Calcein EC50 (μM) Mean (n = 3)
[2] = system: PrP^Sc in nondividing ScN2a-cl3 cells; type: cell-based, mouse; settings: read-out: Non-Dividing ELISA EC50 (μM) Mean (n = 3); ScN2a-c13 non-dividing cells; mean n = 3
[3] = system: PrP^Sc in dividing ScN2a-cl3 cells; type: cell-based, mouse; design: Dividing ELISA pEC50 (μM) 1st Expt. / Dividing ELISA pEC50 (μM) 2nd Expt. / Dividing ELISA pEC50 (μM) 3rd Expt. / Dividing ELISA pEC50 (μM) Mean: unit not given here; settings: ScN2a-cl3 dividing cells
[4] = read-out: Dividing ELISA EC50 (μM) 1st Expt., 1st determination
[5] = read-out: Dividing ELISA EC50 (μM) 2nd Expt., 2nd determination
[6] = read-out: Dividing ELISA EC50 (μM) 3rd Expt., 3rd determination
[7] = read-out: Dividing ELISA EC50 (μM) Mean, mean of three determinations

SMILES	% Inhibition: Calcein (T98G) (T98G cells) [%]	% Inhibition: Calcein (IMR32) (IMR32 cells) [%]	% Inhibition: SPC (IMR32) (PrP^C in IMR32 cells)	% Inhibition: SPC (T98G) (PrP^C in T98G cells)	other results
Cc1cccc(N2CCN(C(=O)c3ccc4c(c3)OCO4)CC2)c1C [IND-0023025]	26	15	MW: 338.4 % Inhibition: SPC (IMR32): 34 Calcein: 15 SPC (T98G): 34 Calcein: 26	MW: 338.4 % Inhibition: SPC (IMR32): 34 Calcein: 15 SPC (T98G): 34 Calcein: 26	
CC(C)(C)NCC(O)COc1ccc(C23CC4CC(CC(C4)C2)C3)cc1 (centres unmarked) [IND-0003070]	−13	34	MW: 285.4 % Inhibition: SPC (IMR32): 94 Calcein: 34 SPC (T98G): −55 Calcein: −13	MW: 285.4 % Inhibition: SPC (IMR32): 94 Calcein: 34 SPC (T98G): −55 Calcein: −13	
CCS(=O)(=O)c1ncc(Cl)c(C(=O)Nc2ccccc2C)n1 [IND-0081396]	−8	15	MW: 339.8 % Inhibition: SPC (IMR32): 91 Calcein: 15 SPC (T98G): −5 Calcein: −8	MW: 339.8 % Inhibition: SPC (IMR32): 91 Calcein: 15 SPC (T98G): −5 Calcein: −8	
COc1ccc(C(NC(C)=O)c2ccc3cccnc3c2O)cc1 (centres unmarked) [IND-0058521]	3	17	MW: 322.4 % Inhibition: SPC (IMR32): 56 Calcein: 17 SPC (T98G): 49 Calcein: 3	MW: 322.4 % Inhibition: SPC (IMR32): 56 Calcein: 17 SPC (T98G): 49 Calcein: 3	
CCc1ccc(C2C(C#N)=C(N)Oc3cc(N(C)C)ccc32)cc1 (centres unmarked) [IND-0020681]	21	39	MW: 319.4 % Inhibition: SPC (IMR32): 48 Calcein: 39 SPC (T98G): 43 Calcein: 21	MW: 319.4 % Inhibition: SPC (IMR32): 48 Calcein: 39 SPC (T98G): 43 Calcein: 21	
COc1ccccc1C(=O)N1CCN(c2cccc(Cl)c2)CC1 [IND-0021750]	21	25	MW: 330.8 % Inhibition: SPC (IMR32): 44 Calcein: 25 SPC (T98G): 52 Calcein: 21	MW: 330.8 % Inhibition: SPC (IMR32): 44 Calcein: 25 SPC (T98G): 52 Calcein: 21	
CC(=O)N1CCc2c([nH]c3ccccc23)C1c1ccc(Cl)cc1 (centres unmarked) [IND-0017998]	−19	7	MW: 324.8 % Inhibition: SPC (IMR32): 73 Calcein: 7 SPC (T98G): 74 Calcein: −19	MW: 324.8 % Inhibition: SPC (IMR32): 73 Calcein: 7 SPC (T98G): 74 Calcein: −19	
Cc1cc(C)c(S(=O)(=O)NCc2ccccc2)c(C)c1 [IND-0014135]	9	4	MW: 289.4 % Inhibition SPC (IMR32): 55 Calcein: 4 SPC (T98G): 39 Calcein: 9	MW: 289.4 % Inhibition SPC (IMR32): 55 Calcein: 4 SPC (T98G): 39 Calcein: 9	
COc1ccc(S(=O)(=O)Nc2cc(C)ccc2C)cc1 [IND-0007902]	19	36	MW: 291.4 % Inhibition: SPC (IMR32): 38 Calcein: 36 SPC (T98G): 51 Calcein: 19	MW: 291.4 % Inhibition: SPC (IMR32): 38 Calcein: 36 SPC (T98G): 51 Calcein: 19	
COc1ccc(NC(=O)Nc2ccc(SC(F)(F)F)cc2)cc1 [IND-0002925]	−10	13	MW: 342.3 % Inhibition: SPC (IMR32): 22 Calcein: 13 SPC (T98G): 62 Calcein: −10	MW: 342.3 % Inhibition: SPC (IMR32): 22 Calcein: 13 SPC (T98G): 62 Calcein: −10	
OCCNC1CCCc2c1[nH]c1ccc(Br)cc21 (centres unmarked) [IND-0015066]	−27	2	MW: 309.2 % Inhibition: SPC (IMR32): 45 Calcein: 2 SPC (T98G): −11 Calcein: −27	MW: 309.2 % Inhibition: SPC (IMR32): 45 Calcein: 2 SPC (T98G): −11 Calcein: −27	
Cc1[nH]c2ccccc2c1-c1ccnc2ccccc12 [IND-0010878]	25	19	MW: 318.4 % Inhibition: SPC (IMR32): 34 Calcein: 19 SPC (T98G): 64 Calcein: 25	MW: 318.4 % Inhibition: SPC (IMR32): 34 Calcein: 19 SPC (T98G): 64 Calcein: 25	
CC(C)c1ccc(NC(=O)Nc2cnccn2)cc1 [IND-0088907]	27	9	MW: 256.3 % Inhibition: SPC (IMR32): 4 Calcein: 9 SPC (T98G): 46 Calcein: 27	MW: 256.3 % Inhibition: SPC (IMR32): 4 Calcein: 9 SPC (T98G): 46 Calcein: 27	
Cc1nc2sccn2c1-c1csc(Nc2ccc(N(C)C)cc2)n1 [IND-0009688]	8	38	MW: 288.8 % Inhibition: SPC (IMR32): 66 Calcein: 38 SPC (T98G): 31 Calcein: 8	MW: 288.8 % Inhibition: SPC (IMR32): 66 Calcein: 38 SPC (T98G): 31 Calcein: 8	
FC(F)(F)Oc1ccc(-c2csc(Nc3cc4ccccc4cn3)n2)cc1 [compound 31, Isoquinolin-3-yl-[4-(4-trifluoromethoxyphenyl)-thiazol-2-yl]-amine]					antiprion activity (in words) [1]: inactive; EC50 (N2a-cl3 cells): > 32 µM; melting point: 269 to 271 °C; EC50 [2]: > 32 µM; Dividing ELISA pEC50 (μM) 1st Expt. ([3]; 1st determination): >4.5; Dividing ELISA pEC50 (μM) 2nd Expt. ([3]; 2nd determination): >4.5; Dividing ELISA pEC50 (μM) 3rd Expt. ([3]; 3rd determination): >4.5; EC50 [3, 4]: > 32 µM; EC50 [3, 5]: > 32 µM; EC50 [3, 6]: > 32 µM; EC50 [3, 7]: > 32 µM
Cc1cccc(Nc2nc(-c3ccncc3)cs2)c1 [IND-0022317]	5	35	MW: 267.4 % Inhibition: SPC (IMR32): 87 Calcein: 35 SPC (T98G): 65 Calcein: 5	MW: 267.4 % Inhibition: SPC (IMR32): 87 Calcein: 35 SPC (T98G): 65 Calcein: 5	
N#Cc1c(NC(=O)CCc2cccs2)sc2c1CCCC2 [IND-0082865]	17	37	MW: 316.4 % Inhibition: SPC (IMR32): 60 Calcein: 37 SPC (T98G): 51 Calcein: 17	MW: 316.4 % Inhibition: SPC (IMR32): 60 Calcein: 37 SPC (T98G): 51 Calcein: 17	
COc1ccnc(Nc2nc(-c3cc(-c4ccccc4)no3)cs2)c1 [compound 41, (4-Methoxypyridin-2-yl)-[4-(3-phenylisoxazol-5-yl)-thiazol-2-yl]-amine]					EC50 ([1]; read-out: EC50 (ELISA), reduction of PrP^Sc load): 250 nM; EC50 (N2a-cl3 cells): > 32 µM; melting point: 177 to 179 °C; EC50 [2]: > 32 µM; Dividing ELISA pEC50 (μM) 1st Expt. ([3]; 1st determination): 6.43; Dividing ELISA pEC50 (μM) 2nd Expt. ([3]; 2nd determination): 6.78; Dividing ELISA pEC50 (μM) 3rd Expt. ([3]; 3rd determination): 6.66; Dividing ELISA pEC50 (μM) Mean ([3]; mean of three determinations): 6.62; EC50 [3, 4]: 0.369 µM; EC50 [3, 5]: 0.166 µM; EC50 [3, 6]: 0.219 µM; EC50 [3, 7]: 0.251 µM
CCS(=O)(=O)c1ncc(Cl)c(C(=O)Nc2ccc(F)cc2)n1 [IND-0081737]	−4	18	MW: 343.8 % Inhibition: SPC (IMR32): 41 Calcein: 18 SPC (T98G): −10 Calcein: −4	MW: 343.8 % Inhibition: SPC (IMR32): 41 Calcein: 18 SPC (T98G): −10 Calcein: −4	
COc1ccc(C(=O)NCc2cc(C)nc3ccccc23)cc1 [IND-0086056]	20	18	MW: 306.4 % Inhibition: SPC (IMR32): 45 Calcein: 18 SPC (T98G): 49 Calcein: 20	MW: 306.4 % Inhibition: SPC (IMR32): 45 Calcein: 18 SPC (T98G): 49 Calcein: 20	
